In patent US11598778B2, “Method for diagnosis, prognosis and determination of treatment for cutaneous t-cell lymphoma” (UNIVERSITY OF PITTSBURGH—OF THE COMMONWEALTH SYSTEM OF …, priority 2013, dated 2023):

Key:
Format in all cases: cell-based, human
PLS3 = experiment: qRT-PCR of PLS3 gene expression in cultured PBMCs after drug treatment; details: isolated PBMCs, 48 hours of incubation with treatment; 4 μM romidepsin or 20 uM pralatrexate; romidepsin p<0.05; FIG. 5B
Procedure: (§1) Isolated PBMCs were cultured overnight and the next day divided into two treatment groups: 4 μM romidepsin and 20 uM pralatrexate. Each treatment was added 24 hours following culture initiation and was replaced along with fresh media 24 hours after initial treatment. After 48 hours of incubation with treatment, RNA was isolated from treated cells using RNAprotect and RNeasy (Qiagen, Valencia, Calif.) per manufacturer's instructions. For cDNA synthesis, total RNA (100 ng) was used for Reverse Transcription (RT) with Superscript II reverse transcriptase (Life Technologies, Gaithersburg, Md.) using oligo dT primers according to the recommendations of the manufacturer. 2 ul of the resulting cDNA was used for each PCR reaction. Quantitative reverse transcription PCR was performed using TaqMan PCR master mix (Applied Biosystems, Foster City, Calif.) together with TaqMan probes and primers (Applied Biosystems) using standard conditions. Expression of TOX, PLS3 and […] genes were measured in this way.

RUNX3 = experiment: qRT-PCR of RUNX3 gene expression in cultured PBMCs after drug treatment; details: isolated PBMCs, 48 hours of incubation with treatment; 4 μM romidepsin or 20 uM pralatrexate; romidepsin p<0.05; FIG. 5C
Procedure: as §1

TOX = experiment: qRT-PCR of TOX gene expression in cultured PBMCs after drug treatment; details: isolated PBMCs, 48 hours of incubation with treatment; 4 μM romidepsin or 20 uM pralatrexate; romidepsin p<0.05; FIG. 5A
Procedure: as §1

C#CCC(Cc1cnc2nc(N)nc(N)c2n1)c1ccc(C(=O)N[C@@H](CCC(=O)O)C(=O)O)cc1 (stereo partly drawn) [pralatrexate]
gene expression of PLS3 (PLS3): did not result in altered gene expression | expression of RUNX3 (RUNX3): did not result in altered gene expression | gene expression of TOX (TOX): did not result in altered gene expression
